Reference: patent publication US20120207763A1, “PYRROLOPYRIMIDINE COMPOUNDS AND THEIR USES” (ASTEX THERAPEUTICS LIMITED, priority 2006, published 2012)
Like-named read-outs stand apart in the source and are kept apart here.

How the values were obtained:
[1] = target: CDK2/Cyclin-A kinase complex (Homo sapiens, UniProt P24941); assay: CDK2 IMAP fluorescence polarization assay; assay type: biochemical
From the text: In order to test the CDK2 activity of the compounds of the invention, the CDK2 assay is a flourescence polarization assay, where the enzyme is a purified active CDK2/Cyclin-A kinase complex and the substrate is a synthesized peptide derived from Histone H1. This assay utilizes the IMAP technology from Molecular Devices. The active CDK2/Cyclin-A complex phosphorylates the peptide substrate, which is conjugated with the TAMRA tag. The phosphorylated site is then recognized by a metal containing molecule that interacts with the TAMRA tag to induce a high flourescence polarization. The compounds that inhibit the CDK2 kinase activity would inhibit the flourescence output of the assay.

[2] = target: CDK4 (Homo sapiens, UniProt P11802); assay: CDK4 HTRF assay; assay type: biochemical; conditions: Table E; read-out: CDK4 HTRF/IC50 [umol l − 1]
[3] = Table E, read-out: CDK2cyA IMAP/IC50 [umol l − 1]

CDK4, sequence (P11802 whole entry): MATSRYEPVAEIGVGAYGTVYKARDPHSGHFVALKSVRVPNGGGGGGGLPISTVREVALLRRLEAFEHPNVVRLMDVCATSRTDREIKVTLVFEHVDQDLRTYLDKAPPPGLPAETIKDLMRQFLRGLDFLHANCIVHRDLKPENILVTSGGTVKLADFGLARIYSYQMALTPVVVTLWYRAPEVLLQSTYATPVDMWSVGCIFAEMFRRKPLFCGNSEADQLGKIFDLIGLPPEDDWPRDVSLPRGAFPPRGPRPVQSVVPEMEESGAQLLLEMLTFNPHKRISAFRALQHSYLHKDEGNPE
CDK4, sequence (P24385 whole entry partner): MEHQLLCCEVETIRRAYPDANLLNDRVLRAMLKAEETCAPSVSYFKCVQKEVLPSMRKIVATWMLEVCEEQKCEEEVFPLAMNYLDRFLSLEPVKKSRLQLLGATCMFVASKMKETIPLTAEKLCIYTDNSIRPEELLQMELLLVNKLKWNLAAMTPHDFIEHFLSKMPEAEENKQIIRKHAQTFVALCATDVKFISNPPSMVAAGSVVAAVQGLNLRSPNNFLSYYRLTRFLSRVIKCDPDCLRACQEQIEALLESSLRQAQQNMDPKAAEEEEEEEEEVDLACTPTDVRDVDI

Row | IC50 [1, 3] | IC50 [2] | IC50 ([1]; Table C, read-out: CDK2 IC50) | Compound
1 | < 10 µM |  |  | CC(=O)N1CCN(c2ccc(Nc3ncc4ccn(C5CCOCC5)c4n3)cc2)CC1 [Example 228]
2 | > 10 µM |  |  | CC(=O)N1CCN(c2ccc(Nc3ncc4ccn(C5CCCC5)c4n3)nc2)CC1 [Example 252]
3 | > 10 µM |  |  | Cc1cn(C2CC2)c2nc(Nc3ccc(N4CCN(C)CC4)cc3)ncc12 [Example 270]
4 | < 10 µM | < 1 µM |  | CCC(C)n1ccc2cnc(Nc3ccc(N4CCNCC4)cc3)nc21 (stereo not shown) [Example 230]
5 | > 10 µM | > 10 µM |  | Cc1cn(C2CC2)c2nc(Nc3ccc(N4CCNCC4)cc3)ncc12 [Example 276]
6 | > 10 µM | > 10 µM |  | COC(=O)c1c(C)n(C2CCCC2)c2nc(Nc3ccc(N4CCNCC4)cc3)ncc12 [Example 408]
7 | > 10 µM |  |  | CC(=O)N1CCN(c2ccc(Nc3ncc4ccn(C5CCCCC5=O)c4n3)cc2)CC1 (stereo not shown) [Example 226]
8 | < 10 µM |  |  | CCC(C(N)=O)n1ccc2cnc(Nc3ccc(N4CCN(C(C)=O)CC4)cc3)nc21 (stereo not shown) [Example 227]
9 | < 10 µM | > 10 µM |  | Cc1ccc(Nc2ncc3ccn(C4CCCC4)c3n2)cc1 [Example 435]
10 | < 10 µM |  |  | CCc1cn(C2CCCC2)c2nc(Nc3ccc(N4CCNCC4)cc3)ncc12 [Example 438]
11 | < 10 µM | > 10 µM |  | c1ncc(-c2ccc(Nc3ncc4ccn(C5CCCC5)c4n3)cc2)o1 [Example 258]
12 | < 10 µM |  |  | CN1CCN(c2ccc(Nc3ncc4ccn(C5CCCC5)c4n3)cc2)CC1 [Example 253]
13 | < 10 µM |  |  | CC(=O)N1CCN(c2ccc(Nc3ncc4ccn(C5CCCC(C)C5)c4n3)cc2)CC1 (stereo not shown) [Example 241]
14 | < 1 µM | < 1 µM |  | NC1CCC(n2ccc3cnc(Nc4ccc(N5CCNCC5)cc4)nc32)CC1 (stereo not shown) [Example 243]
15 | < 10 µM |  |  | CCC(=O)N1CCN(c2ccc(Nc3ncc4ccn(C(CC)CC)c4n3)cc2)CC1 [Example 237]
16 | < 10 µM |  |  | CCC(C)n1ccc2cnc(Nc3ccc(N4CCN(C(C)=O)CC4)cc3)nc21 (stereo not shown) [Example 222]
17 | < 10 µM |  |  | CCC(CC)n1ccc2cnc(Nc3ccc(N4CCN(C(C)=O)CC4)cc3)nc21 [Example 201]
18 | < 10 µM | < 1 µM |  | CC1CCC(n2ccc3cnc(Nc4ccc(N5CCNCC5)cc4)nc32)CC1 (stereo not shown) [Example 240]
19 | < 10 µM |  |  | CN(C)CC1CCC(n2ccc3cnc(Nc4ccc(N5CCNCC5)cc4)nc32)C1 (stereo not shown) [Example 249]
20 | < 1 µM | < 1 µM |  | OC1CCCC(n2ccc3cnc(Nc4ccc(N5CCNCC5)cc4)nc32)C1 (stereo not shown) [Example 244]
21 | < 10 µM | < 1 µM |  | O=C(O)[C@@H]1CCC(n2ccc3cnc(Nc4ccc(N5CCNCC5)cc4)nc32)C1 (stereo partly shown) [Example 248]
22 |  |  | > 10 µM | CC1CN(C2CCCC2)c2nc(Nc3ccc(N4CCN(C)CC4)cc3)ncc21 (stereo not shown)
23 | > 10 µM |  |  | c1cc(N2CCNCC2)ccc1Nc1ncc2ccn(C3CCOCC3)c2n1 [Example 235]
24 | < 10 µM |  |  | Cc1cn(C2CCCC2)c2nc(Nc3ccc(N4CCN(S(C)(=O)=O)CC4)cc3)ncc12 [Example 286]
25 | < 10 µM |  |  | CCC(C(=O)OC)n1ccc2cnc(Nc3ccc(N4CCN(C(C)=O)CC4)cc3)nc21 (stereo not shown) [Example 219]
26 | < 1 µM |  |  | CC(=O)N1CCN(c2ccc(Nc3ncc4ccn(C5CCC(C)CC5)c4n3)cc2)CC1 (stereo not shown) [Example 236]
27 | > 10 µM |  |  | CC(=O)N1CCN(c2ccc(Nc3ncc4c(C)cn(C5CCCCC5)c4n3)cc2)CC1 [Example 274]
28 | < 1 µM |  |  | CC(=O)N1CCN(c2ccc(Nc3ncc4ccn(C5CCCC5)c4n3)cc2)CC1 [Example 254]

Continued, molecule first:

Row | Compound | IC50 [1, 3] | IC50 [2] | IC50 ([1]; Table C, read-out: CDK2 IC50)
29 | Cc1cn(C2CCCC2)c2nc(Nc3ccc(N4CCNCC4)c(F)c3)ncc12 [Example 285] | < 10 µM |  | 
30 | Cc1cn(-c2ccccc2)c2nc(Nc3ccc(N4CCNCC4)cc3)ncc12 [Example 437] | > 10 µM |  | 
31 | CCC(CC)n1c(C(C)O)cc2cnc(Nc3ccc(N4CCN(C(C)=O)CC4)cc3)nc21 (stereo not shown) [Example 376, 1-(4-{4-[7-(1-Ethyl-propyl)-6-(1-hydroxy-ethyl)-7H-pyrrolo[2,3-d]pyrimidin-2-ylamino]-phenyl}-piperazin-1-yl)-ethanone] | < 10 µM | < 1 µM | 
32 | CCC(CC)n1c(C(=O)OC)cc2cnc(Nc3ccc(N4CCN(C(C)=O)CC4)cc3)nc21 [Example 373, 2-[4-(4-Acetyl-piperazin-1-yl)-phenylamino]-7-(1-ethyl-propyl)-7H-pyrrolo[2,3-d]pyrimidine-6-carboxylic acid methyl ester] | < 10 µM |  | 
33 | Cc1cn(C2CCCC2)c2nc(Nc3ccc(N4CCNCC4)nc3)ncc12 [Example 283] | > 10 µM |  | 
34 | Cc1cn(C2CCCCC2)c2nc(Nc3ccc(N4CCNCC4)cn3)ncc12 [Example 426] | > 10 µM | < 1 µM | 
35 | Cc1cn(C2CCCC2)c2nc(Nc3ccc(S(N)(=O)=O)cc3)ncc12 [Example 288] | < 1 µM |  | 
36 | Cc1c(C(=O)O)n(C2CCCC2)c2nc(Nc3ccc(N4CCNCC4)cn3)ncc12 [Example 444] | > 10 µM | < 1 µM | 
37 | Cc1cn(-c2cccnc2)c2nc(Nc3ccc(N4CCNCC4)cc3)ncc12 [Example 322] | > 10 µM |  | 
38 | CCC(CC)n1c(C(=O)N2CCCC2)cc2cnc(Nc3ccc(N4CCNCC4)cc3)nc21 [Example 337] | > 10 µM |  | 
39 | CCC(CC)n1c(C(=O)Nc2ccccc2)cc2cnc(Nc3ccc(N4CCNCC4)cc3)nc21 [Example 345] | < 10 µM | < 1 µM | 
40 | Clc1cn(C2CCCC2)c2nc(Nc3ccc(N4CCNCC4)cn3)ncc12 [Example 433] | > 10 µM | < 1 µM | 
41 | Cc1cn(C2CCCC2)c2nc(Nc3cccnc3)ncc12 [Example 300] | < 1 µM |  | 
42 | Cc1cn(-c2nccs2)c2nc(Nc3ccc(N4CCNCC4)cn3)ncc12 [Example 321] | > 10 µM |  | 
43 | CCC(CC)n1c(-c2cnco2)cc2cnc(Nc3ccc(N4CCN(C(C)=O)CC4)cc3)nc21 [Example 363, 1-(4-{4-[7-(1-Ethyl-propyl)-6-oxazol-5-yl-7H-pyrrolo[2,3-d]pyrimidin-2-ylamino]-phenyl}-piperazin-1-yl)-ethanone] | < 1 µM | < 1 µM | 
44 | Cc1cn(C2CCCC2)c2nc(Nc3ccccc3C#N)ncc12 [Example 301] | > 10 µM | 10 µM | 
45 | CCOC(=O)C(C(C)C)n1ccc2cnc(Nc3ccc(N4CCNCC4)cc3)nc21 (stereo not shown) [Example 231] | > 10 µM | < 1 µM | 
46 | CCC(CC)n1c(CNC(C)C)cc2cnc(Nc3ccc(N4CCN(C(C)=O)CC4)cc3)nc21 [Example 366] | < 10 µM |  | 
47 | CCC(C(=O)OC)n1ccc2cnc(Nc3ccc(N4CCNCC4)cc3)nc21 (stereo not shown) [Example 221] | < 10 µM |  | 
48 | CCC(CC)n1c(C(=O)NC2CCCC2)cc2cnc(Nc3ccc(N4CCNCC4)cc3)nc21 [Example 344] | > 10 µM |  | 

Row | Compound | IC50 [1, 3] | IC50 [2] | IC50 ([1]; Table C, read-out: CDK2 IC50)
49 | Cc1cccnc1Nc1ncc2c(C)cn(C3CCCC3)c2n1 [Example 297] | > 10 µM | 10 µM | 
50 | Cc1cn(-c2ccccc2)c2nc(Nc3ccc(N4CCNCC4)cc3)ncc12 [Example 273] | > 10 µM | > 10 µM | 
51 | Cc1cc(-c2c(C)c3cnc(Nc4ccc(N5CCNCC5)cn4)nc3n2C2CCCC2)[nH]n1 [Example 404] | > 10 µM | < 1 µM | 
52 | COc1ccccc1Nc1ncc2c(C)cn(C3CCCC3)c2n1 [Example 293] | > 10 µM | 10 µM | 
53 | Cc1cn(C2CCCC2)c2nc(Nc3ncccn3)ncc12 [Example 296] | > 10 µM | 10 µM | 
54 | Cc1cn(C2CC2)c2nc(Nc3ccc(N4CCNCC4)cn3)ncc12 [Example 271] | > 10 µM |  | 
55 | Cc1cn(-c2ccccn2)c2nc(Nc3ccc(N4CCNCC4)cn3)ncc12 [Example 320, (5-Methyl-7-pyridin-2-yl-7H-pyrrolo[2,3-d]pyrimidin-2-yl)-(5-piperazin-1-yl-pyridin-2-yl)-amine] | > 10 µM |  | 
56 | Cc1c(Cl)c2cnc(Nc3ccc(N4CCNCC4)cn3)nc2n1C1CCCC1 [Example 334] | > 10 µM | < 1 µM | 
57 | CCC(CC)n1c(C(C)=O)cc2cnc(Nc3ccc(N4CCN(C(C)=O)CC4)cc3)nc21 [Example 377, 1-[2-[4-(4-Acetyl-piperazin-1-yl)-phenylamino]-7-(1-ethyl-propyl)-7H-pyrrolo[2,3-d]pyrimidin-6-yl]-ethanone] | < 1 µM | < 1 µM | 
58 | Cc1cn(-c2nccs2)c2nc(Nc3ccc(N4CCN(S(C)(=O)=O)CC4)cn3)ncc12 [Example 446] | < 10 µM | 10 µM | 
59 | CCC(CC)n1c(C(C)OC)cc2cnc(Nc3ccc(N4CCNCC4)cc3)nc21 (stereo not shown) [Example 378, [7-(1-Ethyl-propyl)-6-(1-methoxy-ethyl)-7H-pyrrolo[2,3-d]pyrimidin-2-yl]-(4-piperazin-1-yl-phenyl)-amine] | < 10 µM | < 1 µM | 
60 | CCCCNC(=O)c1cc2cnc(Nc3ccc(N4CCNCC4)cc3)nc2n1C(CC)CC [Example 336] | > 10 µM |  | 
61 | CC(=O)c1c(C)c2cnc(Nc3ccc(N4CCNCC4)cn3)nc2n1C1CCOCC1 [Example 388] | > 10 µM |  | 
62 | Cc1cc(-c2c(C)c3cnc(Nc4ccc(N5CCNCC5)cn4)nc3n2C2CCCC2)on1 [Example 405] | > 10 µM |  | 
63 | CCC(C(N)=O)n1ccc2cnc(Nc3ccc(N4CCNCC4)cc3)nc21 (stereo not shown) [Example 234] | > 10 µM |  | 
64 | CC(C)c1cn(C2CCCC2)c2nc(Nc3ccc(N4CCNCC4)cn3)ncc12 [Example 440] | > 10 µM |  | 
65 | CCC(CC)n1c(CNC(C)C)cc2cnc(Nc3ccc(N4CCNCC4)cc3)nc21 [Example 367] | < 10 µM |  | 
66 | CCC(CC)n1c(C(=O)N2CCOCC2)cc2cnc(Nc3ccc(N4CCNCC4)cc3)nc21 [Example 343] | > 10 µM |  | 
67 | CCOC(=O)C(C(C)C)n1ccc2cnc(Nc3ccc(N4CCN(C(C)=O)CC4)cc3)nc21 (stereo not shown) [Example 223] | > 10 µM |  | 
68 | Cc1cn(C2CCCC2)c2nc(Nc3ccncc3)ncc12 [Example 298] | < 1 µM |  | 
